The subject of series [1] is mild to moderate lines and wrinkles, dullness and moderate dyschromia. Put plainly: Tolerability assessments (subjective and objective), IRS compared with 0.1% Adapalene, 12 weeks. Type of series: in vivo, human (women). The conditions noted are these: IRS vs 0.1% Adapalene. The source says:
(§1) The objective of the study is to evaluate and compare the anti-aging efficacy and tolerability of 0.1% Adapalene compared to Intensive Renewing Serum over a 12-week period when used by women with mild to moderate lines and wrinkles, dullness and moderate dyschromia.
Subjects reported to the facility at Baseline for Expert Grader assessments of various facial photoaging and irritation parameters, subjective assessments of facial irritation, digital imaging of the face, replica sampling of the crow's foot area, capacitance and firmness/elasticity measurements of the face and completed a self-assessment questionnaire. Subjects were randomized to receive 1 of 2 investigational products for treatment to the entire face for 12 weeks. Subjects returned to the lab at Week 2 and Week 4 to have Expert Grader assessments, digital imaging and self-assessments repeated. At Weeks 8 and 12, subjects returned for Expert Grader assessments, digital imaging, replica sampling, capacitance and firmness/elasticity measurements and self-assessments.
(§2) Expert Grader Assessments: In addition to screening and selecting the final panel, an Expert Grader assessed the face of each subject for various irritation and efficacy parameters at Baseline and after 2, 4, 8 and 12 weeks of treatment. The scale that was used for each assessment parameter (unless otherwise indicated) is: 0=none, 1-3=mild, 4-5=moderate, […].
Irritation parameters: The Expert Grader assessed the face of each subject at each time point for the following irritation parameters using a 0-9 scale: Erythema, Dryness, Scaling, and Edema. Using a 0-9 scale, subjects were asked to rate their amount of: Burning, Stinging, Itching, Tightness, and Dryness.
Treatment Procedures: approximately 20-25 subjects assigned to each product per randomization. After the Baseline assessments and measurements had been completed, the subjects reported to the Treatment Technician, who dispensed a new container of their assigned product to the subject and instructed the subject to apply the product according to the Sponsor's instructions below:
Product C: Morning instructions: Follow your regular morning skincare routine. Evening instructions: Product C should be used once daily in the evening, after your regular cleanser. Open a capsule by twisting off the tail end of one capsule. Apply the serum over your entire face, including under the eyes and crow's feet. […] Avoid getting into eyes, In case of inadvertent eye contact, rinse eyes with plenty of water to remove product from eyes. […] Use one capsule per night. Follow with the rest of your evening skin care Regimen. Note: make sure that no water gets into the jar and that your hands are dry before use. Please ensure the jar is tightly closed after each use.
Product N: Morning instructions: Follow your regular morning skincare routine. Evening instructions: Product N should be used once daily in the evening, after your regular cleanser. Clean the skin gently with your regular cleanser and pat dry before applying Product N. Cover the entire face, including under the eyes and crow's feet, with a thin layer. […] Avoid product contact with eyes, lips and mouth. If contact occurs, immediately flush the area with water. […] Wash hands after use. […] Follow with the rest of your evening skin care Regimen.

Series [2] has the same test system. Put plainly: Comparison grading from photos, IRS compared with 0.1% Adapalene. Type of series: in vivo, human (women). How it is done: (§3) Efficacy parameters: The assessments of efficacy were made using methods that would provide the Sponsor the most information on changes in the subject's skin over time. The methods that the Expert Grader used to assess efficacy are as follows: 1. Live Grading: Absolute scores from viewing the subject's face were assigned using a 0-9 scale. Live grades were conducted at each time point. 2. Baseline Aided Grading: Absolute scores from viewing the subject's face were assigned using a 0-9 scale at the Baseline visit and the Expert Grader used the subject's Baseline photo for reference at follow-up visits. Baseline aided grading was conducted at each time point other than at Baseline. 3. Comparison Grading from Photos: Comparison grading was performed after the conclusion of the study. The Expert Grader compared the photos from each time point to Baseline for improvement/worsening using the below scale: −4=Marked worsening, −3=Moderate worsening, −2=Mild worsening, −1=Barely perceptible worsening, −0.1=Forced choice worsening, 0=No change, 0.1=Forced choice improvement, 1=Barely perceptible improvement, 2=Mild improvement, 3=Moderate improvement, and 4=Marked improvement.
The following efficacy parameters were assessed by the Expert Grader along with the assessment method(s) are listed: 1. Skin Texture (softness/smoothness) [tactile]: Live grading, 2. Skin Texture [visual]: Live grading/Baseline aided, 3. Fine Lines (eye area including crow's feet): Live grading/Baseline aided/Comparison scores from photos, 4. […] Pinch recoil (under the eye): Live grading (For this assessment, a 0-9 score will not be assigned. Per the Sponsor, the evaluator will pinch the subject's skin at the designated site using the thumb and forefinger and hold the skin in place for approximately 2 seconds. A stopwatch will be started upon release and the time required for the subject's skin to return to its original conformation will be measured to the nearest tenth of a second. A decrease in pinch recoil times over time indicates an improvement in skin “bounce-back” or elasticity/resiliency.). […]

For series [3] the test system is unchanged. Description: Expert Grader clinical grading assessment of efficacy, IRS compared with 0.1% Adapalene. Type of series: in vivo, human (women).
Source text: as §1, §2, §3
The following efficacy parameters were assessed by the Expert Grader along with the assessment method(s) are listed: 1. Skin Texture (softness/smoothness) [tactile]: Live grading, 2. Skin Texture [visual]: Live grading/Baseline aided, 3. Fine Lines (eye area including crow's feet): Live grading/Baseline aided/Comparison scores from photos, 4. Wrinkles (eye area, including crows feet): Live grading, Baseline aided, Comparison scores from photos, 5. Pore appearance: Comparison scores from photos, 6. Firmness: Live grading, 7. Sagging (nasolabial fold area): Comparison scores from photos, 8. Discrete hyperpigmentation: Comparison scores from photos, 9. Mottled hyperpigmentation: Comparison scores from photos, 10. Skin tone evenness: Comparison scores from photos, 11. Radiance/luminosity/glow (defined as Dull to luminous/shiny): Live grading, 12. Sallowness (sallow to rosy): Live grading/Baseline aided, 13. Overall healthy skin appearance: Comparison scores from photos, 14. Overall photodamage: Live grading/Baseline aided, 15. Pinch recoil (under the eye): Live grading (For this assessment, a 0-9 score will not be assigned. Per the Sponsor, the evaluator will pinch the subject's skin at the designated site using the thumb and forefinger and hold the skin in place for approximately 2 seconds. A stopwatch will be started upon release and the time required for the subject's skin to return to its original conformation will be measured to the nearest tenth of a second. A decrease in pinch recoil times over time indicates an improvement in skin “bounce-back” or elasticity/resiliency.). […]

For series [4], the system named is melanin production in MelanoDerm™ skin substitute. Description: Melanin-modulatory effect in MelanoDerm skin substitutes (color measurement, melanin extraction). Type of series: cell-based. Particulars: 2%; 2 weeks. How it is done:
Objective: The objective of this assay was to determine the ability of the test materials (dimethylisosorbide [DMI], retinoic acid [ATRA], 10% w/w NEAR-1 in dimethylisosorbide [NEAR-1], Niacinamide PC [NAD], and Kojic Acid [KA]) and combinations thereof to inhibit melanin production in MelanoDerm™ skin substitute model. The effect of these experimental conditions on the secretion of the proinflammatory cytokine IL-8 was also assessed, as a surrogate for skin irritation potential.
Tissues were equilibrated at 37° C. for 60 min. and undiluted samples (25 μl) of test materials were applied on top of tissues in duplicates. DMI and kojic acid were applied at 2.5% and 2% (w:v) respectively (dissolved in double distilled water). Tissue culture was pursued in the pigmentation-inducing medium EPI-100-NMM-113 for 14 days, with reapplication of test materials and changes of tissue culture media every 2-3 days.
At the end of the experiment, tissue pigmentation was quantified non-invasively with NS800 portable spectrophotometer (3NH Technology Co., Ltd., China). This instrument is a reflectance spectrophotometer that measures reflected light in the visible spectrum (range: 400-700 nm) recording colors in a three-dimensional space known as CIEL*a*b* color space. In this project, the L* value representing the lightness of the color was used for color assessment. For the purpose of this experiment, the range of the L* parameter spanned from 17.8 (black background) to 87.8 (white background).
For melanin quantification, the MelanoDerms were frozen, solubilized in Solvable™ (Perkin Elmer) and melanin was extracted at 95° C. overnight. The colorimetric signals proportional to the concentration of extracted melanin, as well as those proportional to the IL-8 in the tissue-conditioned medium in the ELISA test were quantified with Molecular Devices microplate spectrophotometer MAX190 at 490 nm and 405 nm.

In series [5] the test system is MelanoDerm tissues. Put plainly: Cytotoxicity by microscopic observation of MelanoDerm tissues. The conditions noted are these: 2%; 2 weeks. Type of series: cell-based. How it is done: Tissues were equilibrated at 37° C. for 60 min. and undiluted samples (25 μl) of test materials were applied on top of tissues in duplicates. DMI and kojic acid were applied at 2.5% and 2% (w:v) respectively (dissolved in double distilled water). Tissue culture was pursued in the pigmentation-inducing medium […]-113 for 14 days, with reapplication of test materials and changes of tissue culture media every 2-3 days. Results and Discussion: From the macroscopic documentation of all the MelanoDerm tissues at the end of the experiment, differences of color are clearly visible between the solvent controls and some test materials. Table 34 informs whether cytotoxicity may have played a role in these differences. Table 34 also reports the non-invasive MelanoDerm color measurement performed with portable spectrophotometer. [table]

The source of these data is patent publication US11318077B2, “Retinaldehyde containing compositions and methods of use” (RODAN & FIELDS, LLC, priority 2017, dated 2022).

The structures appear in SMILES notation.

In the case of `COc1ccc(-c2ccc3cc(C(=O)O)ccc3c2)cc1C12CC3CC(CC(C3)C1)C2` [Adapalene, adapalene], in series [1], the “Burning (subjective)” value was “somewhat greater degree of perceived burning”; the “Dryness (objective, clinical)” value was “greater degree of tactile dryness”; the “Erythema (objective, clinical)” value is “somewhat greater degree of erythema”; the “Scaling (objective, clinical)” value is listed as “greater degree of visual scaling”. Also, the “Stinging (subjective)” value in series [1] is on record as “somewhat greater degree of perceived stinging”. For the same molecule, in series [1] (most notably at Week 4), the “Dryness/Tightness (subjective)” value was “slightly greater perception of dryness/tightness”. The “Photo comparison mean scores (overall)” value in series [2] (IRS vs 0.1% Adapalene) is reported as “mean scores slightly favored Adapalene”. Also, in series [2] (over 12 weeks), the “Discrete Hyperpigmentation, photo comparison” value was “slightly better results” and the “Mottled Hyperpigmentation, photo comparison” value is “progressive & slightly better result”. Besides, in series [3] (by weeks 8 & 12), the “Elasticity/Resiliency, clinical grading” value is on record as “No improvement” and the “Skin Texture (Visual), clinical grading” value was “slight improvement”. For the same molecule, the “Fine Lines, clinical grading” value in series [3] (comparable first 4 weeks, mild improvements by week 8, course to week 12) was “remains constant”. In series [3] (over 12 weeks), the “Radiance/Luminosity/Glow, clinical grading” value is “Mild improvement persists through week 8” and the “Skin Texture (Tactile), clinical grading” value is reported as “By week 12, no improvement”.
As for `O=c1cc(CO)occ1O` [KA, Kojic Acid], in series [4], the “Color measurement (whitening units)” value stood at 9.8 whitening units, the “Melanin Content” value came to 38 µg/mL, the “Melanin Content (% control)” value turned out to be 38 % control and the “Raw *L values” is 55.3. In addition, in series [5], the Cytotoxicity entry is “Yes”.
